From publication PMC10339703 (Clinical and Translational Science, 2023)

Tested on: healthy subjects
Assay: Safety and tolerability
Assay type: in vivo, human
[1] = MAD 100 mg tablet b.i.d. 14 days
[2] = MAD 200 mg tablet b.i.d. 14 days

Q: Which results are given for `O[C@H]1CCCN[C@@H]1CCCn1cnc2c(Cl)c(Cl)ccc21` [Bersiporocin]?
A: ADRs, number of events [1]: 32; Abdominal discomfort (ADR), subjects n (%) [1]: 0; Abdominal distension (ADR), number of events [1]: 3; Abdominal distension (ADR), subjects n (%) [1]: 2 (33.3); Abdominal pain (ADR), number of events [1]: 8; Abdominal pain (ADR), subjects n (%) [1]: 3 (50.0); Abdominal pain upper (ADR), number of events [1]: 2; Abdominal pain upper (ADR), subjects n (%) [1]: 2 (33.3); Acne (ADR), subjects n (%) [1]: 0; Alanine aminotransferase increased (ADR), subjects n (%) [1]: 0; Altered visual depth perception (ADR), subjects n (%) [1]: 0; Balance disorder (ADR), subjects n (%) [1]: 0; Bowel movement irregularity (ADR), subjects n (%) [1]: 0; Cold sweat (ADR), subjects n (%) [1]: 0; Constipation (ADR), number of events [1]: 2; Constipation (ADR), subjects n (%) [1]: 2 (33.3); Decreased appetite (ADR), subjects n (%) [1]: 0; Diarrhea (ADR), number of events [1]: 4; Diarrhea (ADR), subjects n (%) [1]: 3 (50.0); Dizziness (ADR), subjects n (%) [1]: 0; Dry mouth (ADR), subjects n (%) [1]: 0; Dysgeusia (ADR), subjects n (%) [1]: 0; Eructation (ADR), subjects n (%) [1]: 0; Esophageal pain (ADR), number of events [1]: 1; Esophageal pain (ADR), subjects n (%) [1]: 1 (16.7); Euphoric mood (ADR), subjects n (%) [1]: 0; Feces discolored (ADR), subjects n (%) [1]: 0; Feces soft (ADR), number of events [1]: 2; Feces soft (ADR), subjects n (%) [1]: 2 (33.3); Feeling hot (ADR), subjects n (%) [1]: 0; Flatulence (ADR), subjects n (%) [1]: 0; Gastroesophageal reflux disease (ADR), subjects n (%) [1]: 0; Headache (ADR), subjects n (%) [1]: 0; Hypoesthesia (ADR), subjects n (%) [1]: 0; Impaired healing (ADR), number of events [1]: 1; Impaired healing (ADR), subjects n (%) [1]: 1 (16.7); Malaise (ADR), subjects n (%) [1]: 0; Myalgia (ADR), subjects n (%) [1]: 0; Nausea (ADR), number of events [1]: 4; Nausea (ADR), subjects n (%) [1]: 3 (50.0); Neutropenia (ADR), subjects n (%) [1]: 0; Oropharyngeal pain (ADR), subjects n (%) [1]: 0; Papule (ADR), number of events [1]: 1; Papule (ADR), subjects n (%) [1]: 1 (16.7); Pollakiuria (ADR), subjects n (%) [1]: 0; Presyncope (ADR), number of events [1]: 1; Presyncope (ADR), subjects n (%) [1]: 1 (16.7); Proctalgia (ADR), subjects n (%) [1]: 0; Salivary hypersecretion (ADR), subjects n (%) [1]: 0; Skin irritation (ADR), number of events [1]: 1; Skin irritation (ADR), subjects n (%) [1]: 1 (16.7); Somnolence (ADR), subjects n (%) [1]: 0; Subjects with ADRs, n (%) [1]: 6 (100); Transaminases increased (ADR), subjects n (%) [1]: 0; Tremor (ADR), subjects n (%) [1]: 0; Vomiting (ADR), number of events [1]: 2; Vomiting (ADR), subjects n (%) [1]: 1 (16.7); ADRs, number of events [2]: 58; Abdominal discomfort (ADR), subjects n (%) [2]: 0; Abdominal distension (ADR), number of events [2]: 5; Abdominal distension (ADR), subjects n (%) [2]: 3 (50.0); Abdominal pain (ADR), number of events [2]: 14; Abdominal pain (ADR), subjects n (%) [2]: 3 (50.0); Abdominal pain upper (ADR), subjects n (%) [2]: 0; Acne (ADR), number of events [2]: 1; Acne (ADR), subjects n (%) [2]: 1 (16.7); Alanine aminotransferase increased (ADR), subjects n (%) [2]: 0; Altered visual depth perception (ADR), subjects n (%) [2]: 0; Balance disorder (ADR), number of events [2]: 1; Balance disorder (ADR), subjects n (%) [2]: 1 (16.7); Bowel movement irregularity (ADR), subjects n (%) [2]: 0; Cold sweat (ADR), subjects n (%) [2]: 0; Constipation (ADR), subjects n (%) [2]: 0; Decreased appetite (ADR), subjects n (%) [2]: 0; Diarrhea (ADR), number of events [2]: 7; Diarrhea (ADR), subjects n (%) [2]: 4 (66.7); Dizziness (ADR), number of events [2]: 2; Dizziness (ADR), subjects n (%) [2]: 2 (33.3); Dry mouth (ADR), subjects n (%) [2]: 0; Dysgeusia (ADR), subjects n (%) [2]: 0; Eructation (ADR), number of events [2]: 1; Eructation (ADR), subjects n (%) [2]: 1 (16.7); Esophageal pain (ADR), subjects n (%) [2]: 0; Euphoric mood (ADR), subjects n (%) [2]: 0; Feces discolored (ADR), subjects n (%) [2]: 0; Feces soft (ADR), subjects n (%) [2]: 0; Feeling hot (ADR), subjects n (%) [2]: 0; Flatulence (ADR), number of events [2]: 1; Flatulence (ADR), subjects n (%) [2]: 1 (16.7); Gastroesophageal reflux disease (ADR), subjects n (%) [2]: 0; Headache (ADR), number of events [2]: 7; Headache (ADR), subjects n (%) [2]: 3 (50.0); Hypoesthesia (ADR), subjects n (%) [2]: 0; Impaired healing (ADR), subjects n (%) [2]: 0; Malaise (ADR), subjects n (%) [2]: 0; Myalgia (ADR), subjects n (%) [2]: 0; Nausea (ADR), number of events [2]: 12; Nausea (ADR), subjects n (%) [2]: 5 (83.3); Neutropenia (ADR), subjects n (%) [2]: 0; Oropharyngeal pain (ADR), subjects n (%) [2]: 0; Papule (ADR), subjects n (%) [2]: 0; Pollakiuria (ADR), subjects n (%) [2]: 0; Presyncope (ADR), subjects n (%) [2]: 0; Proctalgia (ADR), number of events [2]: 2; Proctalgia (ADR), subjects n (%) [2]: 1 (16.7); Salivary hypersecretion (ADR), subjects n (%) [2]: 0; Skin irritation (ADR), subjects n (%) [2]: 0; Somnolence (ADR), number of events [2]: 2; Somnolence (ADR), subjects n (%) [2]: 1 (16.7); Subjects with ADRs, n (%) [2]: 5 (83.3); Transaminases increased (ADR), subjects n (%) [2]: 0; Tremor (ADR), number of events [2]: 1; Tremor (ADR), subjects n (%) [2]: 1 (16.7); Vomiting (ADR), number of events [2]: 2; Vomiting (ADR), subjects n (%) [2]: 2 (33.3); ADRs, number of events (MAD study, bersiporocin group): 150; subjects with ADRs, number (MAD study, bersiporocin group): 21; subjects with ADRs, percentage (MAD study, bersiporocin group): 88%
